These results are taken from the supplement of paper PMC10627819.

Common to all, as to assay: Bliss interaction score (quartile over a dose matrix) (fitness difference); higher = more antagonism (negative = synergy)
In one test the test system is B. subtilis 168. Put shortly: (§1)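 The Bliss score subtracts expected fitness, the product of the single-drug fitness values, from observed fitness. Fitness is plate-normalised OD595 at entry into stationary phase, relative to the robust no-drug mean and capped at 1, with single-drug fitness inferred from combinations. Summaries are quartiles over technical, biological and donor/recipient replicates.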

Another test deals with S. aureus DSM 20231. In outline:
as §1

The subject of a further test is S. aureus Newman. Put shortly:
as §1

The next test has as its system S. pneumoniae D39V. Put shortly:
as §1
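Also: first quartile when negative (synergy) and third quartile when positive (antagonism).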

As for `CO/N=C(\C(=O)N[C@@H]1C(=O)N2C(C(=O)O)=C(COC(N)=O)CS[C@H]12)c1ccco1` [Cefuroxime] + CO[C@H]1/C=C/O[C@@]2(C)Oc3c(C)c(O)c4c(O)c(c(/C=N/N5CCN(C)CC5)c(O)c4c3C2=O)NC(=O)/C(C)=C\C=C\[C@H](C)[C@H](O)[C@@H](C)[C@@H](O)[C@@H](C)[C@H](OC(C)=O)[C@@H]1C [Rifampicin], the Bliss interaction score in the test with B. subtilis 168 was determined as 0.0741; with S. aureus DSM 20231, 0.109; in the test with S. aureus Newman it was 0.0557; in the test on S. pneumoniae D39V, 0.102.

Regarding `N#CC(C#N)=NNc1cccc(Cl)c1` [CCCP] + O=C(O)c1cn(C2CC2)c2cc(N3CCNCC3)c(F)cc2c1=O [Ciprofloxacin], the Bliss interaction score in the test with B. subtilis 168 was -0.0456; with S. aureus DSM 20231, -0.0358; with S. aureus Newman it was -0.0497; in the test with S. pneumoniae D39V, 0.0549.

For `N#CC(C#N)=NNc1cccc(Cl)c1` [CCCP] + O=C(O[C@@H]1Cc2c(O)cc(O)cc2O[C@@H]1c1cc(O)c(O)c(O)c1)c1cc(O)c(O)c(O)c1 [EGCG], the Bliss interaction score with B. subtilis 168 was -0.0905; with S. aureus DSM 20231, -0.0526; with S. aureus Newman it was -0.0367; in the test on S. pneumoniae D39V, 0.105.

In the case of `N#CC(C#N)=NNc1cccc(Cl)c1` [CCCP] + Cn1nnc(-c2ccc(-c3ccc(N4C[C@H](CO)OC4=O)cc3F)cn2)n1 [Tedizolid], the Bliss interaction score was -0.0578 in the test with B. subtilis 168, -0.031 in the test on S. aureus DSM 20231, 0.104 in the test with S. aureus Newman and 0.044 with S. pneumoniae D39V.

On to `CN(C)[C@@H]1C(O)=C(C(N)=O)C(=O)[C@@]2(O)C(O)=C3C(=O)c4c(O)ccc(Cl)c4[C@@](C)(O)[C@H]3C[C@@H]12` [Clortetracycline] + CCC(C)C1C(=O)NC(=C)C(=O)NC(C(=O)NC(CSCC(C(=O)N1)NC(=O)/C(=C/C)/NC(=O)C(C(C)CC)N)C(=O)NC2C(SCC(NC(=O)CNC(=O)C3CCCN3C2=O)C(=O)NC(CCCCN)C(=O)NC4C(SCC(NC(=O)CNC(=O)C(NC(=O)C(NC(=O)C(NC(=O)CNC4=O)C)CC(C)C)CCSC)C(=O)NC(CC(=O)N)C(=O)NC(CCSC)C(=O)NC(CCCCN)C(=O)NC5C(SCC6C(=O)NC(C(=O)NC(CSC(C(C(=O)N6)NC(=O)C(NC5=O)C)C)C(=O)NC(CO)C(=O)NC(C(C)CC)C(=O)NC(CC7=CN=CN7)C(=O)NC(C(C)C)C(=O)NC(=C)C(=O)NC(CCCCN)C(=O)O)CC8=CN=CN8)C)C)C)CC(C)C [Nisin], for which the Bliss interaction score is 0.0718 with B. subtilis 168 (main component drawn), 0.0616 in the test on S. aureus DSM 20231 (main component drawn), 0.0486 with S. aureus Newman (main component drawn) and -0.122 in the test on S. pneumoniae D39V (main component drawn).

As to `CC(=O)Oc1ccccc1C(=O)O` [Acetylsalicylicacid] + CCP(CC)CC.CC(=O)OC[C@@H]1[C@H]([C@@H]([C@H]([C@@H](O1)[S-])OC(=O)C)OC(=O)C)OC(=O)C.[Au+] [Auranofin], the Bliss interaction score with B. subtilis 168 was 0.0526; in the test on S. aureus DSM 20231, -0.0726; with S. aureus Newman, 0.0597; in the test with S. pneumoniae D39V, 0.0631.

For the molecule `COc1cccc2c1C(=O)c1c(O)c3c(c(O)c1C2=O)C[C@@](O)(C(=O)CO)C[C@@H]3O[C@H]1C[C@H](N)[C@H](O)[C@H](C)O1` [Doxorubicin] + C[C@H]1c2cccc(O)c2C(=O)C2=C(O)[C@]3(O)C(=O)C(C(N)=O)=C(O)[C@@H](N(C)C)[C@@H]3[C@@H](O)[C@@H]21 [Doxycycline], the Bliss interaction score in the test with B. subtilis 168 is 0.0384; in the test with S. aureus DSM 20231, 0.0574; in the test on S. aureus Newman, -0.0163; in the test with S. pneumoniae D39V, -0.144.

In the case of `CC(=O)Oc1ccccc1C(=O)O` [Acetylsalicylicacid] + O=C(O)[C@H]1/C(=C/CO)O[C@@H]2CC(=O)N21 [Clavulanic], the Bliss interaction score in the test on B. subtilis 168 was 0.0831; with S. aureus DSM 20231, -0.553; with S. aureus Newman it was 0.0986; in the test on S. pneumoniae D39V, 0.0345.

Regarding `CC1(C)S[C@@H]2[C@H](NC(=O)Cc3ccccc3)C(=O)N2[C@H]1C(=O)O` [PenicillinG] + CN[C@@H]1[C@H](O)[C@H](NC)[C@H]2O[C@@]3(O)C(=O)C[C@@H](C)O[C@H]3O[C@@H]2[C@H]1O [Spectinomycin], the Bliss interaction score in the test on B. subtilis 168 is 0.0272; with S. aureus DSM 20231 it was -0.0365; with S. aureus Newman it was -0.0496; with S. pneumoniae D39V, 0.0325.

Turning to `CO/N=C(\C(=O)N[C@@H]1C(=O)N2C(C(=O)O)=C(COC(C)=O)CS[C@H]12)c1csc(N)n1` [Cefotaxime] + CC1(C)S[C@@H]2[C@H](NC(=O)Cc3ccccc3)C(=O)N2[C@H]1C(=O)O [PenicillinG], the Bliss interaction score in the test with B. subtilis 168 is -0.151; in the test with S. aureus DSM 20231, -0.0835; in the test with S. aureus Newman it was -0.0351; with S. pneumoniae D39V, -0.0791.

Regarding `N#CC(C#N)=NNc1cccc(Cl)c1` [CCCP] + CN[C@H](CC(C)C)C(=O)N[C@H]1C(=O)N[C@@H](CC(N)=O)C(=O)N[C@H]2C(=O)N[C@H]3C(=O)N[C@H](C(=O)N[C@H](C(=O)O)c4cc(O)cc(O)c4-c4cc3ccc4O)[C@H](O)c3ccc(c(Cl)c3)Oc3cc2cc(c3O[C@@H]2O[C@H](CO)[C@@H](O)[C@H](O)[C@H]2O[C@H]2C[C@](C)(N)[C@H](O)[C@H](C)O2)Oc2ccc(cc2Cl)[C@H]1O [Vancomycin], the Bliss interaction score in the test on B. subtilis 168 is 0.0489; in the test with S. aureus DSM 20231, 0.0309; in the test on S. aureus Newman, -0.0614; in the test on S. pneumoniae D39V, 0.0815.

In the case of `N#CC(C#N)=NNc1cccc(Cl)c1` [CCCP] + CCCCCCCCCC(=O)N[C@@H]1[C@H]([C@@H]([C@H](O[C@H]1OC2=C3C=C4C=C2OC5=C(C=C(C=C5)[C@H]([C@H]6C(=O)N[C@@H](C7=C(C(=CC(=C7)O)OC8[C@H]([C@H]([C@@H]([C@H](O8)CO)O)O)O)C9=C(C=CC(=C9)[C@H](C(=O)N6)NC(=O)[C@@H]4NC(=O)[C@@H]1C2=CC(=CC(=C2)OC2=C(C=CC(=C2)[C@H](C(=O)N[C@H](CC2=CC(=C(O3)C=C2)Cl)C(=O)N1)N)O)O)O)C(=O)O)O[C@H]1[C@@H]([C@H]([C@@H]([C@H](O1)CO)O)O)NC(=O)C)Cl)CO)O)O [Teicoplanin], the Bliss interaction score in the test with B. subtilis 168 (main component drawn) is 0.17; in the test on S. aureus DSM 20231 (main component drawn), 0.0772; in the test on S. aureus Newman (main component drawn), -0.0483; with S. pneumoniae D39V (main component drawn), 0.096.

As for `C[C@@H]1O[C@@H]1P(=O)(O)O` [Fosfomycin] + CC(=O)O[C@H]1C[C@@]2(C)[C@@H](C[C@@H](O)[C@H]3[C@@]4(C)CC[C@@H](O)[C@@H](C)[C@@H]4CC[C@@]32C)/C1=C(\CCC=C(C)C)C(=O)O [Fusidic acid], the Bliss interaction score was 0.0895 in the test with B. subtilis 168, 0.0457 in the test with S. aureus DSM 20231, -0.0179 in the test with S. aureus Newman and 0.0774 in the test with S. pneumoniae D39V.

As to `CC(=O)Oc1ccccc1C(=O)O` [Acetylsalicylicacid] + COc1ccc(C[C@H](N)C(=O)N[C@H]2[C@@H](O)[C@H](n3cnc4c(N(C)C)ncnc43)O[C@@H]2CO)cc1 [Puromycin], the Bliss interaction score was 0.0812 in the test on B. subtilis 168, 0.0722 with S. aureus DSM 20231, -0.0494 in the test with S. aureus Newman and 0.149 with S. pneumoniae D39V.

With `CC(=O)Oc1ccccc1C(=O)O` [Acetylsalicylicacid] + CC1=C(C(=O)O)N2C(=O)[C@@H](NC(=O)[C@H](N)c3ccccc3)[C@H]2SC1 [Cephalexin], the Bliss interaction score stood at 0.108 in the test with B. subtilis 168, 0.0849 with S. aureus DSM 20231, 0.0494 in the test with S. aureus Newman and 0.241 with S. pneumoniae D39V.
